Results taken from patent EP4563146A1 (IRBM S.P.A., priority 2023, dated 2025).
pEC50, pIC50: −log10 of the molar value. Where two headings read alike, the source gives them in different places.

Key:
[1] = molecular target: T1, West Nile Virus (WNV) NS2B-NS3 protease (West Nile virus, UniProt Q9Q6P4); experiment: WNV protease inhibition assay; type: biochemical; conditions: Table 4; letter codes for IC50
T1 construct: NS2B1423-1470); purchased R&D 2907-SE-020
Source text: WNV protease inhibition assay

ZIKV replicon = experiment: ZIKV replication inhibition assay (NanoLuc replicon in Vero cells); conditions: 72 h
[2] = Zika virus, Vero, read-out: ZIKA Cell_Nanoluc
[3] = Zika virus, Vero, read-out: ZIKA Cell_Nanoluc, Vero cells with stable ZIKV replicon, 72 h, Nano-Glo readout

T1 sequence (Q9Q6P4 1423-1470): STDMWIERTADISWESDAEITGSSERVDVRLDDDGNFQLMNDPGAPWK
T1 sequence (Q9Q6P4 1506-1689): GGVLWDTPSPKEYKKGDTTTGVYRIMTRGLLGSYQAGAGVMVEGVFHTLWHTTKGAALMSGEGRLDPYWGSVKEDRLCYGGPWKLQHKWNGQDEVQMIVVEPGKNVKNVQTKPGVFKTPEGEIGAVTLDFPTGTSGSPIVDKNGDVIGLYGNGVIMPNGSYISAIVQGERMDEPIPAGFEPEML

Structure (SMILES) | pIC50 [1] | pEC50 (ZIKV replicon; read-out: ZIKA Cell_Nanoluc, Vero cells with stable ZIKV replicon, Nano-Glo readout) | pEC50 (ZIKV replicon; [2]) | pEC50 (ZIKV replicon; [3])
CN(C)C[C@H]1CC[C@H]([n+]2cc([N-]C(=O)Nc3cc(NC(=O)CS(=O)(=O)c4ccccc4)cc(C(F)(F)F)c3)on2)CC1 [Example 151, (3-((1R,4R)-4-((Dimethylamino)methyl)-cyclohexyl)-1,2,3-oxadiazol-3-ium-5-yl)((3-(2-(phenylsulfonyl)acetamido)-5-(trifluoromethyl)phenyl)carbamoyl)amide] | 6.00 to 7.00 | 4.70 to 6.00 | – | –
CN(C)C[C@H]1CC[C@H]([n+]2cc([N-]C(=O)Nc3cc(NC(=O)Cc4cccc(CN)c4)cc(C(F)(F)F)c3)on2)CC1 [Example 163, ((3-(2-(3-(Aminomethyl)phenyl)acetamido)-5-(trifluoromethyl)phenyl)carbamoyl)(3-((1R,4R)-4-((dimethylamino)methyl)cyclohexyl)-1,2,3-oxadiazol-3-ium-5-yl)amide] | 6.00 to 7.00 | – | 4.70 to 6.00 | –
CNC(=O)[C@H]1CCC[C@@H]([n+]2cc([N-]C(=O)Nc3cc(NC(=O)Cc4ccccc4C)cc(C(F)(F)F)c3)on2)C1 (racemic) [Example 245, rac-(3-((1R,3S)-3-(Methylcarbamoyl)cyclohexyl)-1,2,3-oxadiazol-3-ium-5-yl)((3-(2-(o-tolyl)acetamido)-5-(trifluoromethyl)phenyl)carbamoyl)amide] | 6.00 to 7.00 | – | – | 4.70 to 6.00
Cc1cccc(CC(=O)Nc2cc(NC(=O)[N-]c3c[n+]([C@H]4CC[C@H](CN(C)C)CC4)no3)cc(C(F)(F)F)c2)c1C [Example 212, (3-((1R,4R)-4-((Dimethylamino)methyl)-cyclohexyl)-1,2,3-oxadiazol-3-ium-5-yl)((3-(2-(2,3-dimethylphenyl)acetamido)-5-(trifluoromethyl)phenyl)carbamoyl)amide] | 6.00 to 7.00 | – | 4.70 to 6.00 | –
Cc1cnn(C)c1-c1ccc(C[n+]2cc([N-]C(=O)Nc3ccc(C#N)c(C(F)(F)F)c3)on2)cc1 [Example 238, ((4-Cyano-3-(trifluoromethyl)phenyl)-carbamoyl)(3-(4-(1,4-dimethyl-1H-pyrazol-5-yl)benzyl)-1,2,3-oxadiazol-3-ium-5-yl)amide] | 6.00 to 7.00 | – | – | 4.70 to 6.00
Cc1ccccc1CC(=O)Nc1cc(NC(=O)[N-]c2c[n+]([C@H]3CC[C@H](CN(C)C)CC3)no2)cc(C(F)(F)F)c1 [Example 171, (3-((1R,4R)-4-((Dimethylamino)methyl)-cyclohexyl)-1,2,3-oxadiazol-3-ium-5-yl)((3-(2-(o-tolyl)acetamido)-5-(trifluoromethyl)phenyl)-carbamoyl)amide] | > 7.00 | – | 6.00 to 7.00 | –
COC(=O)[C@@H]1CCC[C@@H]([n+]2cc([N-]C(=O)Nc3cc(NC(=O)Cc4ccccc4C)cc(C(F)(F)F)c3)on2)C1 [Example 224, (3-((1R,3R)-3-(Methoxycarbonyl)cyclohexyl)-1,2,3-oxadiazol-3-ium-5-yl)((3-(2-(o-tolyl)-acetamido)-5-(trifluoromethyl)phenyl)-carbamoyl)amide] | > 7.00 | – | – | > 7.00
CN(C)C[C@H]1CC[C@H]([n+]2cc([N-]C(=O)Nc3cc(NC(=O)C4Cc5ccccc54)cc(C(F)(F)F)c3)on2)CC1 (some centres unmarked) [Example 195] | 4.70 to 6.00 | – | 6.00 to 7.00 | –
Cc1ccccc1CC(=O)Nc1cc(NC(=O)[N-]c2c[n+]([C@@H]3CCC[C@H](C(=O)N(C)C)C3)no2)cc(C(F)(F)F)c1 [Example 234, (3-((1R,3S)-3-(Dimethylcarbamoyl)cyclohexyl)-1,2,3-oxadiazol-3-ium-5-yl)((3-(2-(o-tolyl)-acetamido)-5-(trifluoromethyl)phenyl)-carbamoyl)amide] | 6.00 to 7.00 | – | – | 4.70 to 6.00
Cc1ccnc(C)c1-c1ccc(C[n+]2cc([N-]C(=O)Nc3ccnc(C(F)(F)F)c3)on2)cc1 [Example 263, (3-(4-(2,4-Dimethylpyridin-3-yl)benzyl)-1,2,3-oxadiazol-3-ium-5-yl)((2-(trifluoromethyl)pyridin-4-yl)carbamoyl)amide] | > 7.00 | – | – | > 7.00
